One assay deals with PC 3 (human CaP cells). As to the kind of experiment: IHC analysis of excised PC 3 tumors. The arrangement: species or system SCID/bg mice. As to conditions: mouse, in vivo. The source says:
Some features are immediately noticeable even upon H&E staining that could explain the tumor growth patterns. […] We interpret this as being the result of accumulation of DNA damage, including DSBs, which are not promptly repaired, even as they may be expected to occur spontaneously in many cells in the harsh environment of tumor growth. This has in fact been reported before and was attributed to localized hypoxia 24. […] The staining was not negative, as one may think, since inspection at higher magnification confirmed the expected pattern of exclusively nuclear staining and lower intensity in nucleoli. […] This is consistent with the γH2AX pattern, showing a large number of cells harboring repair foci, and thus likely arrested in replication (or progressing slowly through S phase). To further establish this, we looked at presence of RPA foci, which is indicative of stalled forks25. As expected from the large number of proliferating cells (PCNA positive) in control tumors, RPA1 Staining was very strong, and particularly in focal areas. RPA1 staining in tumors from doxo treated mice was interesting. […] In tumors from mice treated with doxo+THD, staining for RPA was very weak and consistent to that obtained for PCNA. […] However, we did stain for P Rad9 (S328) to confirm that the effects were mediated via TLK inhibition, in what we propose is part of a checkpoint deactivation mechanism following repair of spontaneous DNA damage. Indeed, numerous cells stained lightly for P Rad9 in untreated tumor cells in fact, they are perhaps a larger proportion than those staining for γH2AX that presumably represent cells with unrepaired DSBs.

In another assay the target is T1, TLK1B (Homo sapiens, UniProt Q9UKI8).
T1 sequence (Q9UKI8 1-549 isoform Q9UKI8-3): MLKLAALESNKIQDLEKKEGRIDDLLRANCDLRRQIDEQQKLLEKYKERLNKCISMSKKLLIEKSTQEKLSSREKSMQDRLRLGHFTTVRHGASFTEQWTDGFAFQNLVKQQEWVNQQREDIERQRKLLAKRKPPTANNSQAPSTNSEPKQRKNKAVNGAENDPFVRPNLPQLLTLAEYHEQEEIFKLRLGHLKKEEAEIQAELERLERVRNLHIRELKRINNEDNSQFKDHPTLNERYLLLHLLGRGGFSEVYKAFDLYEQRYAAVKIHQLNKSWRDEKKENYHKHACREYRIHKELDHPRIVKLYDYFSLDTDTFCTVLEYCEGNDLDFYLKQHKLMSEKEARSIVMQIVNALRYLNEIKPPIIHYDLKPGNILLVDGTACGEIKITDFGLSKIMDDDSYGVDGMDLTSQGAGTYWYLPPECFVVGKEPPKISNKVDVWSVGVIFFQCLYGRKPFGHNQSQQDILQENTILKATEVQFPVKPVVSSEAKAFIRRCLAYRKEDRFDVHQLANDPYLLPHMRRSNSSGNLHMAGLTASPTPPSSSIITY
As to the kind of experiment: TLK1B kinase assay (auto kinase assay with γ 32P ATP; recombinant TLK1B with Rad9 peptide). Type of assay: biochemical. The note with it: inactive defined at concentrations <10 μM. How it is done: To identify inhibitors of TLK, we developed a high throughput screen with recombinant TLK1B, a small Rad9 peptide and the ADP Hunter reagent (DiscoveRx). Using this assay, the Innovative North Louisiana Experimental Therapeutics (INLET) screening core (affiliated with the FWCC) screened the Prestwick library, two other proprietary libraries, and a subset of the ChemDiv library (˜6000 compounds).
Following the initial fluorescent screen at a compound concentration of ˜5 μM, potential hits were tested with a more sensitive auto kinase assay with γ 32P ATP. Inhibition of auto phosphorylation was confirmed by TCA precipitable counts (FIG. 1A). The inhibitors are highly specific for TLKs. […] We have additional evidence for direct binding of these compounds to the recombinant protein (to be published elsewhere).
TlK1 immune complexes isolated from […] protein extracts using abtiserum made in our lab and Protein A beads. Adsorbed proteins were washed twice in kinase assay buffer (KAB) (50 mM HEPES pH 7.2, 10 mM MgCl2, 5 mM MnCl2, 2.5 mM EGTA, 1 mM DTT, 1 mM NaF, 0.2 mM sodium o vanadate, […] leupeptin, 2 g/ml aprotinin) and incubated for 15-30 min at 30° C. in KAB supplemented with 10 µM ATP, 10 Ci [−32P]ATP (>5000 Ci/mmol, GE). The proteins were separated on 10% SDS-PAGE gels, transferred to nitrocellulose before exposure on a Phosphorlmager; and then processed for WB with TLK1 antiserum. For kinase assays with recombinant TLK1B protein, the reactions were similar, and carried out with 10 ng TLK1B and 50 ng Rad9 peptide substrate. These were carried out to confirm the initial “hits” from the screen and further to obtain accurate ID50 values for the various inhibitors.

Assay [1] concerns kinase panel (KinomeScan). As to the kind of experiment: KinomeScan kinase panel (DiscoverRx). The note with it: significantly inhibited = >60% at 10 μM. Type of assay: binding.
A further assay deals with panel of cell lines. As to the kind of experiment: Doubling in a larger panel of cell lines. Type of assay: cell-based. As to conditions: inhibitor alone. The source says:
inhibitors had generally similar potency in additive killing with doxo in both DU145 and PC3 (FIG. 6). The RMT potentiation is not limited to these two CaP cell lines, but is also true for MDA MB231 BCA cells (FIG. 6). […] The TLK inhibitors by themselves had little effect on MDA231 viability and doubling (Sup. FIG. 3). […] This is consistent with their proposed mechanism as inhibitors of DSB repair.

A further assay has as its system MDA 231-Luc. As to the kind of experiment: MDA 231-Luc xenograft model. In kind it is in vivo. As to conditions: female SCID/bg mice, treatment groups as in PC 3 study. The text has this:
We used the breast cancer model cell line MDA 231-Luc, for more precise quantitation of tumor growth (photon emission is linear with the tumor cell number). Female SCID/bg mice (N=8 per group) received 1×10^6 cells and when the tumors reached ˜500 mm3 (˜104 photons/sec) they were assigned to four treatment groups, as in the study above (Sup. FIG. 4).

Entries after “also recorded” stand apart in the source; their conditions may differ.

For `CSc1ccc2c(c1)N(CCC1CCCCN1C)c1ccccc1S2` (centres unmarked) [THD, Thioridazine], in the assay with PC 3 (human CaP cells), the “P Rad9 (S328) staining” value is “severe suppression of P Rad9”, the PCNA positive cells entry is given as “significantly fewer PCNA positive cells”, the “cellular density of the tumor (H&E staining)” value is listed as “clearly reduced the tumor density” and the γH2AX positive cells entry is given as “a large proportion of positive staining cells”. Further, on TLK1B, the “activity on TLK (TLK kinase assays)” value is “active; also recorded: identified as TLK inhibitors”. In assay [1], the “inhibition of other kinases in the panel” value was “no other kinase in the panel was significantly inhibited”. For the same compound, the “cell doubling / growth” value with panel of cell lines was “not found very many cancer cell lines that were sensitive to THD”. Besides, in the assay on MDA 231-Luc, the “tumor growth (photon emission)” value is “effective at controlling tumor increase”.

For the origin of these results see patent US20150018294A1, “MODULATORS OF TOUSLED KINASE IN CELLULAR PROCESSES” (priority 2012, published 2015).
